Experimental data reported in US20260174814A1 (DR. OREGONIN INC., priority 2023, published 2026).

Assay: Protective effect on dexamethasone-induced myotube cell damage (MTT assay)
Format: cell-based
Details: mouse, C2C12 cells differentiated into myotubes, 5 μM dexamethasone alone, read-out: decrease of cell viability compared to the control group not treated with dexamethasone
Description: C2C12 cells, a myoblast derived from mouse skeletal muscle, were purchased from American Type Culture Collection (ATCC) and used. C2C12 cells were cultured in a 37° C.-wet CO2 incubator (5% CO2/95% air) using a cell culture medium in which 10% fetal bovine serum (FBS), 100 units/mL penicillin, and 100 μg/mL streptomycin were added to Dulbecco's Modified Eagle Medium (DMEM). When the cells were 80% full, the cell monolayer was washed with phosphate buffer saline (PBS, pH 7.4), trypsin-2.65 mM EDTA was added thereto, and the cells were detached and subcultured, and the medium was exchanged every 2 days. In order to induce differentiation into myotubes of C2C12 cells, the cells were cultured by exchange with a myocyte differentiation culture medium in which 2% horse serum (HS) was added to DMEM medium, and the myocyte differentiation culture medium was exchanged every 2 days.
C2C12 cells were seeded in 24-well plate at 5×10^4 cells/well and cultured for 24 hours. Thereafter, in order to induce differentiation into myotubes of C2C12 cells, the cell culture medium was exchanged with the myocyte differentiation culture medium to induce differentiation for 4 days. […] After the cells were cultured for 24 hours, MTT assay was performed in the same manner as described above to measure the cell viability.

For `C[C@@H]1C[C@H]2[C@@H]3CCC4=CC(=O)C=C[C@]4(C)[C@@]3(F)[C@@H](O)C[C@]2(C)[C@@]1(O)C(=O)CO` [dexamethasone], which cytotoxicity at 24 h, 5 μM is on record?
Its cytotoxicity at 24 h, 5 μM is ~10%.
